# According to publication PMC5908295 (Oncotarget, 2018):
# Columns and labels:
# SIG-M5 = experiment: MTS viability assay, 72 h; details: Homo sapiens, SIG-M5, 72 h
# Procedure: (§1) On the same day, 50 μL of medium containing tested inhibitor was added to the wells. Each compound was tested at 8 concentrations, in triplicates. As a negative control, the medium containing 0.1% DMSO was used. […] Staurosporine was used at 10 μM as a positive control. One the day of drug addition, basal signal from untreated cells was measured from in triplicate to determine time zero (T0). […] GI50 and LC50 values were extrapolated from a variable (four-parameter) dose-response curve fitted in GraphPad Prism.
# CYP2C9 = molecular target: T1, CYP2C9 (Homo sapiens, UniProt P11712); experiment: CYP isoforms inhibition; assay type: in vitro ADME; details: 5-dose, 3-fold dilution starting at 30 µM
# T1 construct: Cambridge Bioscience Limited (ran the assay)
# Procedure: or absence of enzyme cofactors. The assay was performed microsomes. (Supplementary Table 7).
# with the respective reference samples (i.e. without measured at Cambridge Bioscience Limited (except
# cofactors). After incubation, drug transformation by liver CYP1A2 inhibition which was measured in-house). […]
# The analysis of two standard compounds (i.e. positive a very weak potential for CYP inhibition with IC50
# and negative controls) was included. […]
# PIM1 = PIM1 (Homo sapiens, UniProt P11309); experiment: KINOMEscan Kd (DiscoverX); assay type: binding
# SKM-1 = experiment: MTS viability assay, 72 h; details: Homo sapiens, SKM-1, 72 h
# Procedure: as §1
# SKNO-1 = experiment: MTS viability assay, 72 h; details: SKNO-1, 72 h
# Procedure: (§2) 15-25 ×10^3 of MV-4-11, MOLM-13, MOLM-14, MOLM-16, KG-1, Eol-1, SKM-1, PL-21, GDM-1, SKNO-1, RS4;11, Kasumi-3 and Kasumi-6 cells were seeded in 150 μL of culture medium onto individual wells in a 96 well plates, in triplicates. On the same day, 50 μL of medium containing tested inhibitor was added to the wells. Each compound was tested at 8 concentrations, in triplicates. As a negative control, the medium containing 0.1% DMSO was used. […] Staurosporine was used at 10 μM as a positive control. One the day of drug addition, basal signal from untreated cells was measured from in triplicate to determine time zero (T0). […] GI50 and LC50 values were extrapolated from a variable (four-parameter) dose-response curve fitted in GraphPad Prism.
# [1] = Metabolic stability, liver microsomes; assay type: in vitro ADME; details: Mouse, 37 °C, read-out: Liver microsomes t1/2 (converted)
# PIM2 = PIM2 (Homo sapiens, UniProt Q9P1W9); experiment: KINOMEscan Kd (DiscoverX); assay type: binding
# FLT3wt = FLT3wt (Homo sapiens, UniProt P36888); experiment: KINOMEscan Kd (DiscoverX); assay type: binding
# [2] = Blood biochemistry in mice with MV-4-11 tumors; assay type: in vivo; details: treatment day 15
# Source text: All animals were handled in strict accordance with good animal practice as defined by the relevant national and local animal welfare bodies. SCID and SCID/beige C.B-17 mice were provided by Harlan Laboratories or Charles River Laboratories, and were maintained in pathogen free conditions. For the xenograft experiments, age-matched (9-11 weeks old) females were used. 5×10^6 of MV-4-11 or MOLM-16 cells were suspended in a mixture (1:1, v:v) of PBS with Matrigel (BD Biosciences,) and injected subcutaneously (sc), in a total volume of 100 μL, above the groin on the right hind limb. For MOLM-13 and KG-1 cells, a mixture (3:1, v:v) of PBS and Matrigel HC (BD Bioscience,) was used to inject 5 × 10^6 of cell per mouse subcutaneously (sc), in a total volume of 100 μL. When tumors reached 100-130 mm^3, mice were randomized into uniform groups (6-9 mice per group) and subsequently administered the compound. […] At the end of the experiment, mice were anesthetized with isofluran and blood samples for total cell counts and biochemistry were obtained by retro-orbital bleeding. […] 5×10^6 cells suspended in a mixture (3:1, v:v) of PBS and Matrigel were injected as described above. When the tumor volume reached ~120 mm^3, mice were randomized into uniform groups (5 mice per group) and the compound then administered. […] Tumor volume was monitored every second day and calculated using the formula: TV = (a^2×b)/2, where “a” is the short axis in millimeters, and “b” is the long axis in millimeters. Body weight was assessed every day.
# Supplementary Table 9: Related to Figure 5C. […] The assessment of
# was performed on treatment day 15.
# AST – Aspartate aminotransferase, ALT – Alanine transaminase, ALP – alkaline phosphatase, UREA – blood urea nitrogen,
# CREA – Creatinine, CK – Creatine kinase, TP- total protein; ALB – Albumin. […]
# MOLM-13 = experiment: MTS viability assay, 72 h; details: Homo sapiens, MOLM-13, 72 h
# Procedure: as §2
# [3] = tested on: Phospho-S6 in MOLM-16 tumors; experiment: PK/PD: phospho-S6 in MOLM-16 tumors after dosing; assay type: in vivo, SCID/beige mice; details: 25 mg/kg BID for 3 days
# Procedure: At the end of the experiment, mice were sacrificed 4, 8 and 24h after the last dose (three mice per time point). Plasma and tumor samples were collected and stored at −80°C for further analysis.
# GDM-1 = experiment: MTS viability assay, 72 h; details: Homo sapiens, GDM-1, 72 h
# Procedure: as §2
# KG-1 (FLT3-WT) tumor = experiment: KG-1 subcutaneous xenograft; assay type: in vivo; details: KG-1, SCID mice; doses not given
# Source text: All animals were handled in strict accordance with good animal practice as defined by the relevant national and local animal welfare bodies. SCID and SCID/beige C.B-17 mice were provided by Harlan Laboratories or Charles River Laboratories, and were maintained in pathogen free conditions. For the xenograft experiments, age-matched (9-11 weeks old) females were used. 5×10^6 of MV-4-11 or MOLM-16 cells were suspended in a mixture (1:1, v:v) of PBS with Matrigel (BD Biosciences,) and injected subcutaneously (sc), in a total volume of 100 μL, above the groin on the right hind limb. For MOLM-13 and KG-1 cells, a mixture (3:1, v:v) of PBS and Matrigel HC (BD Bioscience,) was used to inject 5 × 10^6 of cell per mouse subcutaneously (sc), in a total volume of 100 μL. When tumors reached 100-130 mm^3, mice were randomized into uniform groups (6-9 mice per group) and subsequently administered the compound. […] At the end of the experiment, mice were anesthetized with isofluran and blood samples for total cell counts and biochemistry were obtained by retro-orbital bleeding. […] 5×10^6 cells suspended in a mixture (3:1, v:v) of PBS and Matrigel were injected as described above. […] Tumor volume was monitored every second day and calculated using the formula: TV = (a^2×b)/2, where “a” is the short axis in millimeters, and “b” is the long axis in millimeters. Body weight was assessed every day.
# EOL-1 = experiment: MTS viability assay, 72 h; details: Homo sapiens, EOL1, 72 h
# Procedure: as §2
# MOLM-16 = experiment: MTS viability assay, 72 h; details: MOLM16, 72 h
# Procedure: as §1
# [4] = tested on: MOLM-14 cells transduced with FLT3 TKD point mutations (D835Y, D835V and F691L); experiment: MTS viability of MOLM-14 cells with FLT3 alleles; assay type: cell-based; details: 72 h
# [5] = Metabolic stability, liver S9 fraction; assay type: in vitro ADME; details: Human, 37 °C, read-out: Liver S9 fraction t1/2 (converted)
# FLT3wt, sequence (P36888 27-993): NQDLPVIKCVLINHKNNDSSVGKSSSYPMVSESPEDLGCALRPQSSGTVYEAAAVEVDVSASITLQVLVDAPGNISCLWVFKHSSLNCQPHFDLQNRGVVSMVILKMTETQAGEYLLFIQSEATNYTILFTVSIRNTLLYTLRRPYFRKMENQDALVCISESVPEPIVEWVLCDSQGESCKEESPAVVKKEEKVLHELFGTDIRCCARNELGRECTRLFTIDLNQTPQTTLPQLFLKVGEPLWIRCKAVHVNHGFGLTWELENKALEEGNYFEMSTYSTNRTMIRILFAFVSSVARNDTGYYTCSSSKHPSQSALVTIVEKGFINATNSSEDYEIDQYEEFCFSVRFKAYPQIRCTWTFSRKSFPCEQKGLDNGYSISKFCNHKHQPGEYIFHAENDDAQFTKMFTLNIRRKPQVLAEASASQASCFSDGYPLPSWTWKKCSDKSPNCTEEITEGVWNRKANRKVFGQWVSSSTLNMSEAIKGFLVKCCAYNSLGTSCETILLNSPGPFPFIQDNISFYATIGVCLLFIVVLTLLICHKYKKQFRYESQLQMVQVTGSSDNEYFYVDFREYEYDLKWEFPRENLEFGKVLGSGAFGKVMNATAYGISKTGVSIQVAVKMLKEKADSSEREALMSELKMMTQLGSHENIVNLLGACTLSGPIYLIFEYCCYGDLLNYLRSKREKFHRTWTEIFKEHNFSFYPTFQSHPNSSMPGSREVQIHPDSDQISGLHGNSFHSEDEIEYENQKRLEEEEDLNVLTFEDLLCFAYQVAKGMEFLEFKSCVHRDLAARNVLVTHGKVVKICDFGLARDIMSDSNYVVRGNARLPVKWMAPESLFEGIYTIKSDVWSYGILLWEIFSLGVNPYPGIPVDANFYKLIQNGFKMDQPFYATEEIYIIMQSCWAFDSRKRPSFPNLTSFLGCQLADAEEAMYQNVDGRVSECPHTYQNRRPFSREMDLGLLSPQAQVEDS
# T1 sequence (P11712 whole entry, canonical isoform): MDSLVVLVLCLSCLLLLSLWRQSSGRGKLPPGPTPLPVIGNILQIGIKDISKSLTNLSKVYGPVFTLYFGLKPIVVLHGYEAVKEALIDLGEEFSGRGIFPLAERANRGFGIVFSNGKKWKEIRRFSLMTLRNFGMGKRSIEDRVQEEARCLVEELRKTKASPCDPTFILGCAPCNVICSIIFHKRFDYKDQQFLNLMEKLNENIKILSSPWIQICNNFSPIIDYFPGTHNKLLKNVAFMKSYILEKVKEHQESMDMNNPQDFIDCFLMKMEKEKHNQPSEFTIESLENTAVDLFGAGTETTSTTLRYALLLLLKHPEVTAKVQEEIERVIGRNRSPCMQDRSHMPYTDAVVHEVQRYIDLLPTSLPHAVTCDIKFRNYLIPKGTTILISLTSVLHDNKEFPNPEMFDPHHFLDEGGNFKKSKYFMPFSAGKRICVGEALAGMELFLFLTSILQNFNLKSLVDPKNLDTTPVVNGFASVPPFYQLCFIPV
# PIM1, sequence (P11309 whole entry): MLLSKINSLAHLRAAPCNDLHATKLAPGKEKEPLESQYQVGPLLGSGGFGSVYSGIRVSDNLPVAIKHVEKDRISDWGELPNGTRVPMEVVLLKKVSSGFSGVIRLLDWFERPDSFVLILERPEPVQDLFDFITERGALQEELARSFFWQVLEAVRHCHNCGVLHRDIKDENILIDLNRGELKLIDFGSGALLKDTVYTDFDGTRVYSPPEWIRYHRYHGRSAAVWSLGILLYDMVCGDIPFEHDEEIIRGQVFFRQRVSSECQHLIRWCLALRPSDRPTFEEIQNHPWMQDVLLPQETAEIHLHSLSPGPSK
# PIM2, sequence (Q9P1W9 whole entry): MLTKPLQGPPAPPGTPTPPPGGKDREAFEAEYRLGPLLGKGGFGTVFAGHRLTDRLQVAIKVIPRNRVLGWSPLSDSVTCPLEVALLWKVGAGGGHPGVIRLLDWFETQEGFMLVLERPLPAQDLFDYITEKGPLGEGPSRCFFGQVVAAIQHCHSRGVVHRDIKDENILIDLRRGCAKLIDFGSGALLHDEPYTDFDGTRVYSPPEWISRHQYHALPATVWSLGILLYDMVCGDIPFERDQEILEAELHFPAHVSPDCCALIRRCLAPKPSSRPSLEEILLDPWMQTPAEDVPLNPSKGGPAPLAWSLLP
smiles,measurement,setting,value
"CC(C)n1c(C2CCNCC2)nc2c([N+](=O)[O-])c(Br)c(Br)cc21 [SEL24-B489, 5,6-dibromo-4-nitro-2-(piperidin-4-yl)-1-(propan-2-yl)-1H-1,3-benzodiazole]",GI50,SIG-M5,806 nM
same,CC50,SIG-M5; read-out: LC50,3440 nM
same,IC50,CYP2C9,> 150000 nM
same,Kd,PIM1,2 nM
same,GI50,SKM-1,732 nM
same,CC50,SKM-1; read-out: LC50,7770 nM
same,GI50,SKNO-1,18 nM
same,half-life at 1 µM,[1],7.2 h
same,Kd,PIM2,2 nM
same,Kd,FLT3wt,160 nM
same,ALB,[2]; SEL24-B489 25 mg/kg,5.3 g/dL
same,ALP,[2]; SEL24-B489 25 mg/kg,94.2 U/L
same,AST,[2]; SEL24-B489 25 mg/kg,202.4 U/L
same,CK,[2]; SEL24-B489 25 mg/kg,2076 U/L
same,CREA,[2]; SEL24-B489 25 mg/kg,0.40 mg/dL
same,K,[2]; SEL24-B489 25 mg/kg,5.3 mM
same,TP,[2]; SEL24-B489 25 mg/kg,5.6 g/dL
same,UREA,[2]; SEL24-B489 25 mg/kg,6.0 mmol/L
same,ALB,[2]; SEL24-B489 50 mg/kg,4.4 g/dL
same,ALP,[2]; SEL24-B489 50 mg/kg,97.2 U/L
same,ALT,[2]; SEL24-B489 50 mg/kg,49.4 U/L
same,AST,[2]; SEL24-B489 50 mg/kg,135.2 U/L
same,CK,[2]; SEL24-B489 50 mg/kg,1206 U/L
same,CREA,[2]; SEL24-B489 50 mg/kg,0.49 mg/dL
same,K,[2]; SEL24-B489 50 mg/kg,5.3 mM
same,Na,[2]; SEL24-B489 50 mg/kg,141 mM
same,TP,[2]; SEL24-B489 50 mg/kg,5.1 g/dL
same,UREA,[2]; SEL24-B489 50 mg/kg,6.6 mmol/L
same,GI50,MOLM-13,73 nM
same,CC50,MOLM-13; read-out: LC50,446 nM
same,time after the last dose that Phospho-S6 remained suppressed,[3],up to 8 hours
same,GI50,GDM-1,680 nM
same,TGI,KG-1 (FLT3-WT) tumor,~ 50%
same,GI50,EOL-1,266 nM
same,GI50,MOLM-16,42 nM
same,CC50,MOLM-16; read-out: LC50,153 nM
same,viability of MOLM-14 cells with FLT3-TKD mutants versus FLT3-ITD or parental cells,[4],neither of the FLT3 TKD point mutations decreased the cellular sensitivity
same,half-life at 1 µM,[5],9.9 h
